Data on one compound can be found in EP1844786A1, “Extracts of Curcuma longa and their cosmetic and dermatological uses” (EXSYMOL S.A.M., priority 2006, dated 2007).

This assay relates to métabolisation de la testostérone dans des épidermes reconstruits d'origine humaine. In words: Effect on testosterone metabolisation in reconstructed human epidermis (Test 1; labelled testosterone, silica-plate chromatography, radioactivity counting). It counts as cell-based. The following applies: 10^-4M; for inhibition at 100 µM: relative to untreated control, 24 h, mean of 3 epidermes. The source says:
Test 1 : mise en évidence de l'effet d'un extrait de Curcuma longa sur la métabolisation de la testostérone dans des épidermes reconstruits d'origine humaine (fournisseur : SkinEthic®).
Ces épidermes constituent un matériel biologique présentant une forte homologie avec l'épiderme humain, et permettant de tester de manière réaliste un produit destiné à être appliqué à la surface de la peau. Un extrait glycolique de feuilles de Curcuma longa a donc été testé, à différentes concentrations. Leur action a par ailleurs été comparée à celle d'un inhibiteur spécifique de la 5-alpha-réductase, le Finastéride® (molécule de référence dans ce type d'évaluation). Des épidermes reconstruits de 17 jours ont ainsi été pré-cultivés en plaque 24 puits, pendant 24 heures. Puis 100 µl de testostérone marquée ont été déposés sur la face cornée de chaque épiderme. Après 24 nouvelles heures, les milieux de culture ont été prélevés pour analyse. Il est alors regardé la métabolisation de la testostérone par chromatographie sur plaque de silice et par comptage direct de la radioactivité des différents spots, à l'aide du logiciel "Optiquant version 3 (packard)". Différents métabolites, et en particulier la dihydrotestostérone (DHT), sont identifiés à l'aide de standards. Chaque point est la moyenne de 3 mesures effectuées sur des épidermes différents.

The term inhibition denotes the share of the control response that was lost under treatment.

Where two headings read alike, the source gives them in different places.

On to `CC(C)(C)NC(=O)[C@H]1CC[C@H]2[C@@H]3CC[C@H]4NC(=O)C=C[C@]4(C)[C@H]3CC[C@]12C` [Finastéride], for which the inhibition at 100 µM is, setting by setting: (read-out: % inhibition métabolisation testostérone) 54%; (read-out: % inhibition transformation en DHT) 92%. For the same compound, the “Ratio DHT/testo.” value (untreated control 2,2) is given as 0,1.
